{"source": "patent US20070281911A1", "about": "“Use of Adefovir or Tenofovir for Inhibiting Mmtv-Like Viruses Involved in Breast Cancer and Primary Biliary Cirrhosis” (GILEAD SCIENCES INC., priority 2004, published 2007)", "origin": "cited, not measured here", "target": "MMTV RT enzyme (Mouse mammary tumor virus, UniProt P03365)", "sequence (P03365 861-1437)": "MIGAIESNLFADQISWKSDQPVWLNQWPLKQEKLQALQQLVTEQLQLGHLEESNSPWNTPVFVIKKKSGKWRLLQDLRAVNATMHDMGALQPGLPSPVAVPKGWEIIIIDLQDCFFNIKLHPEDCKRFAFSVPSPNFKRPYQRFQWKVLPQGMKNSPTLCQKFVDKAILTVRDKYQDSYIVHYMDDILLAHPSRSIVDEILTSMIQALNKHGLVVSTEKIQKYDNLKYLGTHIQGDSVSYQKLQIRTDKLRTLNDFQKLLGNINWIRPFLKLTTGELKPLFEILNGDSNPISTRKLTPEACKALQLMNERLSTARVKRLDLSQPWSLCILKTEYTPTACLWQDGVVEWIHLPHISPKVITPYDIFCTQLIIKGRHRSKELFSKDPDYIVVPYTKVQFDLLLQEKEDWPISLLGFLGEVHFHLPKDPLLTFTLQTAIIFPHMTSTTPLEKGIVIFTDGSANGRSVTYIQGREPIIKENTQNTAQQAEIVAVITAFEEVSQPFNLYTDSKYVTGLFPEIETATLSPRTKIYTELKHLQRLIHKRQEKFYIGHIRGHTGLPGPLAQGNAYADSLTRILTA", "data": [{"smiles": "Cc1cn([C@H]2C[C@H](N=[N+]=[N-])[C@@H](COP(=O)(O)OP(=O)(O)OP(=O)(O)O)O2)c(=O)[nH]c1=O", "note": "[AZTppp]", "values": [{"measurement": "direct inhibition of MMTV RT enzyme compared with HIV RT enzyme", "value": "as efficiently as the HIV RT enzyme"}]}]}
